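Assay format: 96-well plates, 48-hour exposure. Here, GI50 denotes the concentration required for 50% inhibition of growth.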 Calls of active or inactive are those of the source. Cut-off read from the data, not from the text of the source: active = GI50 up to about 1.1 µM and inactive = higher.
Tests used:
Assay in all cases: DTP human tumour cell line panel, 48 h
786-0 = system: 786-0
A498 = system: A498
A549 = system: A549
ACHN = system: ACHN
BT-549 = system: BT-549
CAKI-1 = system: CAKI-1
CCRF-CEM = system: CCRF-CEM
COLO 205 = system: COLO 205
DU-145 = system: DU-145
EKVX = system: EKVX
HCT-116 = system: HCT-116
HCT-15 = system: HCT-15
HL-60 = system: HL-60
HOP-62 = system: HOP-62
HOP-92 = system: HOP-92
HT-29 = system: HT-29
Hs-578T = system: Hs-578T
IGROV-1 = system: IGROV-1
K562 = system: K562
KM12 = system: KM12
LOX IMVI = system: LOX IMVI
M14 = system: M14
MCF7 = system: MCF7
MDA-MB-231 = system: MDA-MB-231
MDA-MB-435 = system: MDA-MB-435
MOLT-4 = system: MOLT-4
Malme-3M = system: Malme-3M
NCI-H226 = system: NCI-H226
NCI-H23 = system: NCI-H23
NCI-H460 = system: NCI-H460
NCI-H522 = system: NCI-H522
NCI/ADR-RES = system: NCI/ADR-RES
OVCAR-3 = system: OVCAR-3
OVCAR-4 = system: OVCAR-4
OVCAR-5 = system: OVCAR-5
OVCAR-8 = system: OVCAR-8
PC-3 = system: PC-3
RPMI-8226 = system: RPMI-8226
RXF 393 = system: RXF 393
SF-268 = system: SF-268
SF-295 = system: SF-295
SF-539 = system: SF-539
SK-MEL-28 = system: SK-MEL-28
SK-MEL-2 = system: SK-MEL-2
SK-MEL-5 = system: SK-MEL-5
SK-OV-3 = system: SK-OV-3
SN12C = system: SN12C
SNB-19 = system: SNB-19
SNB-75 = system: SNB-75
SR = system: SR
SW-620 = system: SW-620
T47D = system: T47D
TK-10 = system: TK-10
U-251 = system: U-251
UACC-257 = system: UACC-257
UACC-62 = system: UACC-62
UO-31 = system: UO-31
HCC 2998 = system: HCC 2998

COc1ccc(C2=NNC(=O)c3ccccc3N2c2nc(-c3cccs3)nc3ccc(Br)cc23)cc1
GI50 (786-0): 25.8 µM (inactive) | GI50 (A498): > 100 µM (inactive) | GI50 (A549): 60.7 µM (inactive) | GI50 (ACHN): 61.2 µM (inactive) | GI50 (BT-549): 37.5 µM (inactive) | GI50 (CAKI-1): 76.2 µM (inactive) | GI50 (CCRF-CEM): 5.25 µM (inactive) | GI50 (COLO 205): 73.8 µM (inactive) | GI50 (DU-145): 39.9 µM (inactive) | GI50 (EKVX): 24.6 µM (inactive) | GI50 (HCT-116): 69.5 µM (inactive) | GI50 (HCT-15): 34.2 µM | GI50 (HL-60): > 100 µM (inactive) | GI50 (HOP-62): 17.6 µM (inactive) | GI50 (HOP-92): > 100 µM (inactive) | GI50 (HT-29): > 100 µM (inactive) | GI50 (Hs-578T): 35.1 µM (inactive) | GI50 (IGROV-1): 63.5 µM (inactive) | GI50 (K562): 99.5 µM (inactive) | GI50 (KM12): 61.5 µM (inactive) | GI50 (LOX IMVI): 27.1 µM (inactive) | GI50 (M14): 37.4 µM (inactive) | GI50 (MCF7): 68.1 µM (inactive) | GI50 (MDA-MB-231): 43.2 µM (inactive) | GI50 (MDA-MB-435): > 100 µM (inactive) | GI50 (MOLT-4): 65.8 µM (inactive) | GI50 (Malme-3M): 25.2 µM (inactive) | GI50 (NCI-H226): 19.8 µM (inactive) | GI50 (NCI-H23): 31 µM (inactive) | GI50 (NCI-H460): 40.4 µM (inactive) | GI50 (NCI-H522): 64.9 µM (inactive) | GI50 (NCI/ADR-RES): 19.1 µM (inactive) | GI50 (OVCAR-3): 23 µM (inactive) | GI50 (OVCAR-4): 39.8 µM (inactive) | GI50 (OVCAR-5): 61.4 µM (inactive) | GI50 (OVCAR-8): 53.5 µM (inactive) | GI50 (PC-3): 24.7 µM (inactive) | GI50 (RPMI-8226): 52.2 µM (inactive) | GI50 (RXF 393): 68.4 µM (inactive) | GI50 (SF-268): 31 µM (inactive) | GI50 (SF-295): 20.6 µM (inactive) | GI50 (SF-539): 16.7 µM (inactive) | GI50 (SK-MEL-28): > 100 µM (inactive) | GI50 (SK-MEL-2): 78.9 µM (inactive) | GI50 (SK-MEL-5): > 100 µM (inactive) | GI50 (SK-OV-3): 53.7 µM (inactive) | GI50 (SN12C): 56 µM (inactive) | GI50 (SNB-19): 30.1 µM (inactive) | GI50 (SNB-75): 41.4 µM (inactive) | GI50 (SR): 42 µM (inactive) | GI50 (SW-620): 91.4 µM (inactive) | GI50 (T47D): 23.7 µM (inactive) | GI50 (TK-10): 28.2 µM (inactive) | GI50 (U-251): 28.8 µM (inactive) | GI50 (UACC-257): 51.9 µM (inactive) | GI50 (UACC-62): 64.1 µM (inactive) | GI50 (UO-31): > 100 µM (inactive)

Cc1n[nH]c(C(F)(F)F)c1/N=N/N1CCOCC1
GI50 (786-0): 2.63 µM (inactive) | GI50 (A498): 17.4 µM (inactive) | GI50 (A549): 8.89 µM (inactive) | GI50 (ACHN): 4.52 µM (inactive) | GI50 (BT-549): 12.4 µM (inactive) | GI50 (CAKI-1): 1.9 µM (inactive) | GI50 (CCRF-CEM): 0.423 µM (active) | GI50 (COLO 205): 4.69 µM (inactive) | GI50 (DU-145): 4.59 µM (inactive) | GI50 (EKVX): 5.74 µM (inactive) | GI50 (HCC 2998): 1.53 µM (inactive) | GI50 (HCT-116): 1.94 µM (inactive) | GI50 (HCT-15): 8.81 µM | GI50 (HOP-62): 8.77 µM (inactive) | GI50 (HOP-92): 2.42 µM (inactive) | GI50 (HT-29): 3.24 µM (inactive) | GI50 (Hs-578T): 13 µM (inactive) | GI50 (IGROV-1): 10.7 µM (inactive) | GI50 (K562): 1.08 µM (active) | GI50 (KM12): 6.37 µM (inactive) | GI50 (LOX IMVI): 1.97 µM (inactive) | GI50 (M14): 14.7 µM (inactive) | GI50 (MCF7): 3.78 µM (inactive) | GI50 (MDA-MB-231): 12.8 µM (inactive) | GI50 (MDA-MB-435): 12.2 µM (inactive) | GI50 (MOLT-4): 1.84 µM (inactive) | GI50 (Malme-3M): 14.9 µM (inactive) | GI50 (NCI-H226): 8.53 µM (inactive) | GI50 (NCI-H23): 4.06 µM (inactive) | GI50 (NCI-H460): 4.27 µM (inactive) | GI50 (NCI-H522): 3.94 µM (inactive) | GI50 (NCI/ADR-RES): 6.76 µM (inactive) | GI50 (OVCAR-3): 7.21 µM (inactive) | GI50 (OVCAR-4): 5.86 µM (inactive) | GI50 (OVCAR-5): 6.37 µM (inactive) | GI50 (OVCAR-8): 3.76 µM (inactive) | GI50 (PC-3): 7.16 µM (inactive) | GI50 (RPMI-8226): 0.873 µM (active) | GI50 (RXF 393): 12.5 µM (inactive) | GI50 (SF-268): 13.1 µM (inactive) | GI50 (SF-295): 12.6 µM (inactive) | GI50 (SF-539): 14.2 µM (inactive) | GI50 (SK-MEL-28): 14.7 µM (inactive) | GI50 (SK-MEL-2): 13.1 µM (inactive) | GI50 (SK-MEL-5): 2.92 µM (inactive) | GI50 (SK-OV-3): 16.6 µM (inactive) | GI50 (SN12C): 11 µM (inactive) | GI50 (SNB-19): 15.2 µM (inactive) | GI50 (SNB-75): 12.5 µM (inactive) | GI50 (SR): 1.24 µM (inactive) | GI50 (SW-620): 2.32 µM (inactive) | GI50 (T47D): 3.27 µM (inactive) | GI50 (TK-10): 12 µM (inactive) | GI50 (U-251): 12 µM (inactive) | GI50 (UACC-257): 9.77 µM (inactive) | GI50 (UACC-62): 11 µM (inactive) | GI50 (UO-31): 2.4 µM (inactive)

— ChEMBL document CHEMBL1201862, “PubChem BioAssay data set” (2004)
